The text below walks through data of patent publication US6683077B2, “2-Amino-benzoxazinones for the treatment of viral infections” (G.D. Searle & Co., priority 1996, dated 2004).

The test system of experiment [1] is HCMV engineered virus RC256. Put plainly: microbe, parasite or virus in culture. In kind it is cell-based, human cytomegalovirus. To be noted: Human betaherpesvirus 5, Fibroblast, read-out: Antiviral Activity RC256, first value (EC50).
Experiment [2] addresses T1, Human leukocyte elastase (HLE) (Homo sapiens, UniProt P08246).
T1 construct: gift of R. Senior, Washington University
T1 sequence (P08246 30-267): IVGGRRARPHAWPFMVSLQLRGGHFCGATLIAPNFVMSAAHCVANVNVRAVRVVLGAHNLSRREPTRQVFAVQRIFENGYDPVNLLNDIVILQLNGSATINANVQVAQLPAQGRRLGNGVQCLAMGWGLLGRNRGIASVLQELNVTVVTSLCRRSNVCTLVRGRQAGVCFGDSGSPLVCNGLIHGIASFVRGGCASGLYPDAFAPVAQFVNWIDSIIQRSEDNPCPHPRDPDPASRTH
Put plainly: Human leukocyte elastase assay. The experiment is classed as biochemical. On the procedure:
Human leukocyte elastase (HLE) (gift of R. Senior, Washington University) was dissolved in saline at 1 mg/ml and further diluted 1/20 in assay buffer (0.2 M Tris, pH 8.0) before use. 10 μl of test compound in DMSO (or DMSO alone), 100 μl of assay buffer and 50 μl of enzyme were added to 96 well plates, mixed and pre-incubated for 30 minutes at ambient temperature. Reaction was initiated by addition of 40 μl of 2.5 mM methoxysuccinyl-Ala-Ala-Pro-Val-p-nitroanilide (Sigma; 25 mM in DMSO diluted 1/10 in assay buffer before use). The increase in absorbance at 405 nm was monitored for 10 minutes with a Biotek EL340 plate reader.

Where [3] appears, read: @ 10 (concentration unit not given).
[4] abbreviates: @ 1 (concentration unit not given).
[5] abbreviates: @ 100 (concentration unit not given).

As a reminder, the EC50 is the concentration needed to bring the measured effect to its halfway point.

Take `COc1ccc(C[C@H](Nc2nc3ccc(N(C)C)c(C)c3c(=O)o2)C(=O)N(C)c2ccc(Cl)cc2)cc1` [Example 16c, N-(4-Chlorophenyl)-αS-[[6-(dimethylamino)-5-methyl-4-oxo-4H-3,1-benzoxazin-2-yl]amino]-4-methoxy-N-methylbenzenepropanamide]: the 50% effective concentration (EC50) in experiment [1] came to 18 µM. For the same compound, the “HLE, % @ concentration” value in experiment [2] (setting [3]) was found to be 18% @ 10.
For `CCN(C(=O)[C@H](Cc1ccc(OC)cc1)Nc1nc2ccc(N(C)C)c(C)c2c(=O)o1)c1ccccc1` [Example 16b, αS-[[6-(Dimethylamino)-5-methyl-4-oxo-4H-3,1-benzoxazin-2-yl]amino]-N-ethyl-4-methoxy-N-phenylbenzenepropanamide], the EC50 in experiment [1] stood at 20 µM. Further, in experiment [2] (setting [4]), the “HLE, % @ concentration” value amounted to 49% @ 1.
Regarding `CCN(Cc1ccccc1)C(=O)[C@H](Cc1ccc(OC)cc1)Nc1nc2ccc(CNC(=O)OC(C)(C)C)c(C)c2c(=O)o1` [Example 7o, 1,1-Dimethylethyl[[2-[[2-[ethyl(phenylmethyl)amino]-1S-[(4-methoxyphenyl)methyl]-2-oxoethyl]amino]-5-methyl-4-oxo-4H-3,1-benzoxazin-6-yl]methyl]carbamate], the EC50 in experiment [1] was determined as 24 µM. In addition, the “HLE, % @ concentration” value in experiment [2] (@ 12.5 (concentration unit not given)) turned out to be 42% @ 12.5.
As to `Cc1c(NCc2ccccc2)ccc2nc(N[C@@H](Cc3ccccc3)C(=O)N(C)Cc3ccccc3)oc(=O)c12` [Example 17d, N-Methyl-αS-[[5-methyl-4-oxo-6-[(phenylmethyl)amino]-3,1-benzoxazin-2-yl]amino]-N-(phenylmethyl)benzenepropanamide], in experiment [1], the EC50 came to 15 µM. For the same compound, the “HLE, % @ concentration” value in experiment [2] (setting [3]) was determined as 48% @ 10.
Regarding `Cc1c(CNC(=O)NCc2ccccc2)ccc2nc(N[C@@H](Cc3ccccc3)C(=O)N(C)Cc3ccccc3)oc(=O)c12` [Example 12h, N-Methyl-αS-[[5-methyl-4-oxo-6-[[[[(phenylmethyl)amino]carbonyl]amino]methyl]-4H-3,1-benzoxazin-2-yl]amino]-N-(phenylmethyl)benzenepropanamide], in experiment [1], the EC50 was found to be 18 µM. For the same compound, in experiment [2] (setting [4]), the “HLE, % @ concentration” value came out at 58% @ 1.
For the compound `Cc1c(CNC(=O)Nc2ccccc2)ccc2nc(N[C@@H](Cc3ccccc3)C(=O)N(C)Cc3ccccc3)oc(=O)c12` [Example 12f, N-Methyl-αS-[[5-methyl-4-oxo-6-[[[(phenylamino)carbonyl]amino]methyl]-4H-3,1-benzoxazin-2-yl]amino]-N-(phenylmethyl)benzenepropanamide], in experiment [1], the EC50 stood at 14 µM. Moreover, the “HLE, % @ concentration” value in experiment [2] (setting [4]) is 55% @ 1.
`COC(=O)[C@H](Cc1ccccc1)Nc1nc2ccc(NC(=O)CCC(=O)O)c(C)c2c(=O)o1` [Example 11d, N-[6-[[(2-Carboxyethyl)carbonyl]amino]-5-methyl-4-oxo-4H-3,1-benzoxazin-2-yl]-L-phenylalanine, methyl ester]: in experiment [1], the EC50 is more than 100 µM. For the same compound, the “HLE, % @ concentration” value in experiment [2] (setting [5]) turned out to be 76% @ 100.
Consider `COc1ccc(C[C@H](Nc2nc3ccc(CNC(=O)OC(C)(C)C)c(C)c3c(=O)o2)C(=O)N(C)c2ccccc2)cc1` [Example 7t, 1,1-Dimethylethyl[[2-[[1S-[(4-methoxyphenyl)methyl]-2-(methylphenylamino)-2-oxoethyl]amino]-5-methyl-4-oxo-4H-3,1-benzoxazin-6-yl]methyl]carbamate], for which the half-maximal effective concentration (EC50) in experiment [1] was determined as 18 µM. In experiment [2] (setting [3]), the “HLE, % @ concentration” value worked out at 20% @ 10.
Taken in the same sequence, the figures for `COc1ccc(C[C@H](Nc2nc3ccc(NC(=O)OC(C)(C)C)c(C)c3c(=O)o2)C(=O)N(C)Cc2ccccc2)cc1` [Example 6dd, 1,1-Dimethylethyl[2-[[1S-[(4-methoxyphenyl)methyl]-2-[methyl(phenylmethyl)amino]-2-oxoethyl]amino]-5-methyl-4-oxo-4H-3,1-benzoxazin-6-yl]carbamate] were 18 µM and 42% @ 10.
Taken in the same sequence, the figures for `Cc1c(N(C)C)ccc2nc(N[C@@H](Cc3ccccc3)C(=O)N(C)Cc3ccccc3)oc(=O)c12` [Example 16, αS-[[6-(Dimethylamino)-5-methyl-4-oxo-4H-3,1-benzoxazin-2-yl]amino]-N-methyl-N-(phenylmethyl) benzenepropanamide] were 17 µM and 59% @ 10.
Take `Cc1c(CNC(=O)N[C@H](C)c2ccccc2)ccc2nc(N[C@@H](Cc3ccccc3)C(=O)N(C)Cc3ccccc3)oc(=O)c12` [Example 12g]: the EC50 in experiment [1] stood at 30 µM. Besides, in experiment [2] (setting [4]), the “HLE, % @ concentration” value is listed as 45% @ 1.
Take `Cc1c(NC(=O)OC(C)(C)C)ccc2nc(N[C@@H](C)c3ccccc3)oc(=O)c12` [Example 6m, 6-[[(1,1-Dimethylethoxy)carbonyl]amino]-5-methyl-2-[[(1S)-phenylethyl]amino]-4H-3,1-benzoxazin-4-one]: in experiment [1], the half-maximal effective concentration (EC50) stood at 50 µM. In experiment [2] (setting [5]), the “HLE, % @ concentration” value was 82% @ 100.
Turning to `Cc1c(CNC(=O)N(C)c2ccccc2)ccc2nc(N[C@@H](Cc3ccccc3)C(=O)N(C)Cc3ccccc3)oc(=O)c12` [Example 12i, N-Methyl-αS-[[5-methyl-6-[[[(methylphenylamino)carbonyl]amino]methyl]-4-oxo-4H-3,1-benzoxazin-2-yl]amino]-N-(phenylmethyl)benzenepropanamide], the EC50 in experiment [1] stood at 6 µM. Moreover, the “HLE, % @ concentration” value in experiment [2] (setting [4]) was 47% @ 1.
Consider `CCOC(=O)NCc1ccc2nc(N[C@@H](Cc3ccccc3)C(=O)N(C)Cc3ccccc3)oc(=O)c2c1C` [Example 9k, Ethyl[[5-methyl-2-[[2-[methyl(phenylmethyl)amino]-2-oxo-1S-(phenylmethyl)ethyl]amino]-4-oxo-4H-3,1-benzoxazin-6-yl]methyl]carbamate], for which, in experiment [1], the EC50 was 11 µM. Also, the “HLE, % @ concentration” value in experiment [2] (setting [3]) is on record as 29% @ 10.
For the compound `Cc1c(NC(=O)c2ccco2)ccc2nc(N[C@@H](C)c3ccccc3)oc(=O)c12` [Example 11k, 6-[[(2-Furanyl)carbonyl]amino]-5-methyl-2-[[(1S)-phenylethyl]amino]-4H-3,1-benzoxazin-4-one], in experiment [1], the concentration giving a half-maximal response (EC50) was 65 µM. Further, the “HLE, % @ concentration” value in experiment [2] (setting [5]) came out at 63% @ 100.
As to `COc1ccc(C[C@H](Nc2nc3ccc(CNC(=O)CC(C)(C)C)c(C)c3c(=O)o2)C(=O)N(C)Cc2ccccc2)cc1` [Example 9m, αS-[[6-[[(3,3-Dimethyl-1-oxobutyl)amino]methyl]-5-methyl-4-oxo-4H-3,1-benzoxazin-2-yl]amino]-4-methoxy-N-methyl-N-(phenylmethyl)benzenepropanamide], the EC50 in experiment [1] amounted to 14 µM. For the same compound, the “HLE, % @ concentration” value in experiment [2] (setting [4]) is 73% @ 1.
Regarding `COc1ccc(C[C@H](Nc2nc3ccc(CNC(=O)OCC(C)C)c(C)c3c(=O)o2)C(=O)N(C)Cc2ccccc2)cc1` [Example 9h, 2-Methylpropyl[[2-[[1S-[(4-methoxyphenyl)methyl]-2-[methyl(phenylmethyl)amino]-2-oxoethyl]amino]-5-methyl-4-oxo-4H-3,1-benzoxazin-6-yl]methyl]carbamate], in experiment [1], the EC50 was determined as 14 µM. For the same compound, the “HLE, % @ concentration” value in experiment [2] (setting [3]) was 45% @ 10.
For `COc1ccc(C[C@H](Nc2nc3ccc(CNC(=O)OC(C)(C)C)c(C)c3c(=O)o2)C(=O)N(C)CCc2ccccc2)cc1` [Example 7q, 1,1-Dimethylethyl[[2-[[1S-[(4-methoxyphenyl)methyl]-2-[methyl(2-phenylethyl)amino]-2-oxoethyl]amino]-5-methyl-4-oxo-4H-3,1-benzoxazin-6-yl]methyl]carbamate], the EC50 in experiment [1] is 22 µM. Besides, the “HLE, % @ concentration” value in experiment [2] (setting [4]) was 39% @ 1.
